Results on two compounds are retold here after publication PMC9227013, “Synthesis, Anticancer Potential and Comprehensive Toxicity Studies of Novel Brominated Derivatives of Bacterial Biopigment Prodigiosin from Serratia marcescens ATCC 27117” (Molecules, 2022).

Structures are written as SMILES. In brackets after ≈: the same amount, converted by molar mass. Where two headings read alike, the source gives them in different places.

The test system of one data set is MRC-5 cells. Briefly: Annexin V flow cytometry, early apoptosis. To be noted: MRC-5, compound at IC50 concentration, 24 h. The data set is classed as cell-based. As for the experimental part:
The eBioscience^TM Annexin V Apoptosis Detection Kit APC (Invitrogen by Thermo Fischer Scientific, Waltham, MA, USA) was used for the assessment of cellular integrity and the externalization of phosphatidylserine. MRC-5 cells were plated in a 6-well flat-bottom plate at a concentration of 2.5 × 10^5 cells per well, grown for 24 h in a humidified atmosphere of 95% air and 5% CO2 at 37 °C in RPMI 1640 medium supplemented with 10% fetal bovine serum (FBS), 100 U/mL penicillin, and 100 μg/mL streptomycin (Gibco™ by Thermo Fischer Scientific CE, Waltham, MA, USA). Each tested compound was added to the cells at IC50 concentration, and the incubation continued for another 24 h under the same conditions. Upon incubation, cells were collected, washed once with Dulbecco’s Phosphate-Buffered Saline (Gibco™ by Thermo Fischer Scientific CE, Waltham, MA, USA), and stained with Annexin V FITC and propidium iodide (PI) under the manufacturer’s instructions. Briefly, MRC-5 cells were resuspended in 1 × Binding Buffer at 1–5 × 10^6 cells per mL and incubated with 5.00 µL Annexin V FITC for 15 min at room temperature in a final volume of 100 μL. […] Immediately after staining, cells were analyzed using a CyFlow Space Partec flow cytometer, with Partec FloMax software (Partec GmbH, Münster, Germany).

A further data set relates to MRC-5 (lung fibroblasts). Briefly: MTT antiproliferative assay on MRC-5 cells. The data set is classed as cell-based. To be noted: for IC50: Homo sapiens. As for the experimental part: (§1) Selected cell lines MRC-5 (lung fibroblasts), A549 (lung cancer), A375 (melanoma, skin cancer), MDA-MB-231 (breast cancer), and HCT116 (colon cancer) were obtained from ATCC, Manassas, US. Antiproliferative activities of PG and its Br derivatives were measured using the standard colorimetric MTT [3-(4,5-dimethylthiazol-2-yl)-2,5-diphenyltetrazolium bromide] assay. Briefly, cells were plated in a 96-well flat-bottom plate (Sarstedt, Nümbrecht, Germany) at a concentration of 1 × 10^4 cells per well, grown in a humidified atmosphere of 95% air and 5% CO2 at 37 °C, and maintained as monolayer cultures in RPMI 1640 medium supplemented with 10% fetal bovine serum (FBS), 100 U/mL penicillin, and 100 μg/mL streptomycin (all media components from Gibco™ by Thermo Fischer Scientific CE). Each tested compound was added to the cells at a concentration of 0.05–100.00 μg/mL, and the treatment lasted for 48 h. The MTT assay was performed two times in four replicates, and the results were presented as a percentage of the DMSO-treated control that was arbitrarily set to 100%. Plates were read using the Tecan Infinite 200 Pro multiplate reader (Tecan Group Ltd., Männendorf, Switzerland).
(§2) To assess the effect of the treatment duration, exposure of MRC-5 and HCT116 cells to PG and its Br derivatives was observed after 24 h, 48 h, and 72 h and measured using the MTT assay, as described above. MRC-5 and HCT-116 cells treated for 24 h were additionally analyzed using DM IL LED Inverted Microscope (Leica Microsystems, Mannheim, Germany) at 20× magnification.

The test system of data set [1] is A375 (melanoma, skin cancer). Kind of data set: MTT antiproliferative assay on A375 cells. Format: cell-based. To be noted: Homo sapiens. The method, then:
as §1

The test system of the next data set is A549 (lung cancer). Briefly: MTT antiproliferative assay on A549 cells. The data set is classed as cell-based. To be noted: Homo sapiens. As for the experimental part: as §1
Data set [2] concerns zebrafish (Danio rerio) embryos. Briefly: Zebrafish (D. rerio) embryotoxicity. To be noted: for death rate: 10 µg/mL applied at 6 hpf. The data set is classed as in vivo. As for the experimental part:
Wild-type zebrafish (Danio rerio) strain was obtained from the commercial supplier Pet Center, Belgrade, Serbia. Zebrafish embryotoxicity assay was performed according to general rules of the OECD Guidelines for the testing of chemicals. The wild-type zebrafish (D. rerio) strain was kept under controlled environmental conditions (water temperature 28 °C, 14 h under the light and 10 h in the dark) and fed regularly three times a day with commercially dry flake food supplemented with Artemia nauplii (TetraMinTM flakes; Tetra Melle, Germany). Zebrafish embryos were produced by female and male adults mating in the ratio of 1:2. Obtained embryos were collected and washed from detritus and carefully handled. Only fertilized embryos were selected and distributed into 24-well plates (Sarstedt, Germany) containing 10 embryos per well. Each well contained exactly 1 mL of water for embryos (0.2 g/L of Instant Ocean® Salt in distilled water). For assessing lethal and developmental toxicity, embryos at the 6 and 20 h postfertilization (hpf) stages were treated with selected compounds at concentrations of 0.1–100 μg/mL (maximum DMSO concentration in the negative control was 1%) and incubated at 28 °C. Experiments were performed in triplicate, using 30 embryos for each concentration. For five days, the appearance of different morphophysiological parameters in embryo development was monitored, and dead embryos were counted and discarded every 24 h. On the fifth day, the embryos were anesthetized by the addition of 0.1% (w/v) tricaine solution (Sigma-Aldrich, St. Louis, Missouri, US), observed under a stereomicroscope (SMZ-143-N2GG, Motic, Germany) at 3.5× magnification, photographed, and killed by freezing at −20 °C for ≥24 h. All experiments involving zebrafish were performed in compliance with the European directive 2010/63/EU and the ethical guidelines of the Guide for Care and Use of Laboratory Animals of the Institute of Molecular Genetics and Genetic Engineering, University of Belgrade, Serbia.

The test system of a further data set is HCT116 (colon cancer). Briefly: MTT antiproliferative assay on HCT116 cells. Format: cell-based. To be noted: for IC50: Homo sapiens. As for the experimental part:
as §1, §2

For the compound `CCCCCC1=CC(=Cc2[nH]c(-c3ccc[nH]3)cc2OC)N=C1C` [PG, 4-Methoxy-5-[(5-methyl-4-pentyl-2H-pyrrol-2-ylidene)methyl]-1H,1'H-2,2'-bipyrrole], the “Annexin V Positive Cells” value in the data set with MRC-5 cells is given as 20.3 ± 0.5%. Further, the IC50 is 1.8 ± 0.04 µg/mL (≈ 5.57 µM) in the data set on MRC-5 (lung fibroblasts) (MRC5, 24 h); 1.2 ± 0.04 µg/mL (≈ 3.71 µM) in the data set with MRC-5 (lung fibroblasts) (MRC5, 48 h); 0.7 ± 0.02 µg/mL (≈ 2.16 µM) with MRC-5 (lung fibroblasts) (MRC5, 72 h); 1.25 ± 0.04 µg/mL (≈ 3.86 µM) in data set [1] (A-375, 48 h); 1.3 ± 0.02 µg/mL (≈ 4.02 µM) in the data set with A549 (lung cancer) (A549, 48 h); 5 ± 0.06 µg/mL (≈ 15.5 µM) in the data set on HCT116 (colon cancer) (HCT-116, 24 h). Further, the IC50 with HCT116 (colon cancer) (HCT-116, 48 h) came to 0.7 ± 0.02 µg/mL (≈ 2.16 µM); in the data set with HCT116 (colon cancer) (HCT-116, 72 h), 0.8 ± 0.02 µg/mL (≈ 2.47 µM). In the data set with MRC-5 (lung fibroblasts) (MRC-5), the “fold lower IC50 of 72 h in comparison to 24 h exposure” value is reported as 2.5 fold. The same compound yielded a death rate in data set [2] of 100%. For the same compound, the effect on embryos entry in data set [2] (2.5 and 0.1 µg/mL, both at 6 hpf and 20 hpf) is on record as “all the embryos survived, but developed into slightly smaller fish with microcephaly”. Besides, in the data set with HCT116 (colon cancer) (MRC-5 vs colon cancer cells (HCT116), 48 h), the “selectivity between healthy and cancer cell lines” value was 1.7.

Regarding `CCCCCC1=C(Br)/C(=C/c2[nH]c(-c3[nH]ccc3Br)cc2OC)N=C1C` [PG-Br2], the “Annexin V Positive Cells” value in the data set on MRC-5 cells is 19.6 ± 0.6%. Besides, the IC50 with MRC-5 (lung fibroblasts) (MRC5, MRC-5, 48 h treatment, read-out: IC50) came to 10 ± 0.09 µg/mL (≈ 20.8 µM); in the data set on MRC-5 (lung fibroblasts) (MRC5, MRC-5, exposure time 24 h, read-out: IC50), 15 ± 0.05 µg/mL (≈ 31.2 µM); in the data set on MRC-5 (lung fibroblasts) (MRC5, MRC-5, exposure time 72 h, read-out: IC50), 10 ± 0.08 µg/mL (≈ 20.8 µM); in data set [1] (A-375, A375, 48 h treatment, read-out: IC50), 12 ± 0.04 µg/mL (≈ 24.9 µM); in the data set with A549 (lung cancer) (A549, 48 h treatment, read-out: IC50), 16 ± 0.08 µg/mL (≈ 33.2 µM); in the data set with HCT116 (colon cancer) (HCT-116, HCT116, 48 h treatment, read-out: IC50), 10 ± 0.08 µg/mL (≈ 20.8 µM). Further, the IC50 is 50 ± 0.09 µg/mL (≈ 104 µM) with HCT116 (colon cancer) (HCT-116, HCT116, exposure time 24 h, read-out: IC50) and 10 ± 0.05 µg/mL (≈ 20.8 µM) in the data set with HCT116 (colon cancer) (HCT-116, HCT116, exposure time 72 h, read-out: IC50). Besides, the death rate in data set [2] was 0%. For the same compound, the embryos survival rate in data set [2] (20 µg/mL, 6 hpf and 20 hpf) amounted to 100%. In addition, the teratogenic effects entry in data set [2] (20 µg/mL, 6 hpf and 20 hpf) was “without any teratogenic effects”. Also, the effect on embryos result in data set [2] (50–70 µg/mL, application at 6 hpf) is “severe toxicity and abnormal development”.
